{"source": "patent US10143691B2", "about": "“Pathogenic control of apoptosis” (CSIR, priority 2014, dated 2018)", "assay_type_in_all_cases": "cell-based", "key": {"[1]": {"system": "hnRNP-K", "assay": "Immunofluorescence of hnRNP-K cellular location in Ghost(3) cells", "protocol": "(§1) For each experiment, Ghost(3) cells or IPSC-derived primary macrophages were infected or treated with 500 nM Doxorubicin on coverslips, fixed for 10 mins in fresh 4% paraformaldehyde at room temperature, then washed 3 times in PBS and permeabilised for 10 mins in ice-cold methanol at […]. Coverslips were washed once in PBS and incubated in blocking buffer (5% goat serum, 0.3% TritonX100 in PBS) for 60 mins at room temperature. Cells were incubated in primary antibody solution (1% BSA, 0.3% Triton X100 in PBS) overnight at 4° C. Double strand breaks were detected using rabbit polyclonal anti-phosphohistone H2A.X Ser139 (Cell Signaling). Activated ATM was detected using rabbit monoclonal anti-phosphoATM Ser1981 (Cell Signaling). The ability of p53 to regulate apoptosis was detected using rabbit polyclonal antiphosphop53 Ser46 (Cell Signaling). Viral p24 was detected using mouse monoclonal anti-HIV1p24 (AIDS Research and Reference Reagent Program, Division of AIDS, NIAID, NIH). HuR was detected using mouse monoclonal anti-HuR 3A2 (Santa Cruz Biotechnology). hnRNPK was detected using goat polyclonal anti-hnRNPK P20 (Santa Cruz Biotechnology). Coverslips were washed 3 times (5 mins each on an orbital shaker) with wash buffer (0.05% Tween20 in PBS), followed by incubation with secondary antibodies conjugated to either Atto550 or Atto565 or Atto647 for 60 mins at room temperature. Coverslips were washed 3 times (5 mins each on an orbital shaker) with wash buffer (0.05% Tween20 in PBS). Coverslips were incubated in equilibration buffer (0.4% glucose, 2×SCC) for 5 mins and counter stained with 1 mg/ml DAPI (4′,6-diamidino-2-phenylindole; Life Technologies). Coverslips were mounted in glox buffer (3.7 mg/ml glucose oxidase, 1 U catalase) and imaged.\nFor each experiment, cells were infected or treated with drugs on coverslips, fixed for 10 mins in fresh 4% paraformaldehyde at room temperature, then washed 3 times in PBS and permeabilised for 10 mins in ice-cold methanol at −20° C. Coverslips were washed once in PBS and incubated in blocking buffer (5% goat serum, 0.3% Triton-X100 in PBS) for 60 mins at room temperature. Cells were incubated in primary antibody solution (1% BSA, 0.3% Triton X-100 in PBS) overnight at 4° C. Double strand breaks were detected using rabbit polyclonal anti-phospho-histone H2A.X Ser139 (Cell Signaling). Activated ATM was detected using rabbit monoclonal anti-phospho-ATM Ser1981 (Cell Signaling). The ability of p53 to regulate apoptosis was detected using rabbit polyclonal anti-phospho-p53 Ser46 (Cell Signaling). Viral p24 was detected using mouse monoclonal anti-HIV-1-p24 (AIDS Research and Reference Reagent Program, Division of AIDS, NIAID, NIH). HuR was detected using mouse monoclonal anti-HuR 3A2 (Santa Cruz Biotechnology). hnRNP-K was detected using goat polyclonal anti-hnRNP-K P-20 (Santa Cruz Biotechnology). Coverslips were washed 3 times (5 mins each on an orbital shaker) with wash buffer (0.05% Tween-20 in PBS), followed by incubation with secondary antibodies conjugated to either Atto-550 or Atto-565 or Atto-647 for 60 mins at room temperature. Coverslips were washed 3 times (5 mins each on an orbital shaker) with wash buffer (0.05% Tween-20 in PBS). Coverslips were incubated in equilibration buffer (0.4% glucose, 2×SCC) for 5 mins and counter stained with 1 mg/ml DAPI (4′,6-diamidino-2-phenylindole; Life Technologies). Coverslips were mounted in glox buffer (3.7 mg/ml glucose oxidase, 1 U catalase) and imaged."}, "[2]": {"system": "Ghost(3) cells", "conditions": "for apoptosis of HIV-infected cells: HIV-infected Ghost(3) cells exposed to inhibitor (10 μM), 30 hours post-infection", "protocol": "Apoptosis was measured in Ghost(3) cells 30 hours post-infection or drug treatment using the NucView™ 488 Caspase3 Assay Kit (Biotium) in a 96 well format. Data was analysed in MATLAB using a probabilistic region method to measure cell attachment and expressed as percentage cell survival. […] An average of 3000 cells per condition were analysed with the exception of cells treated with Doxorubicin followed by HIV-infection (FIG. 3), cells transfected with lincRNAp21 overexpression constructs followed by Doxorubicin treatment, and cells transfected with full-length lincRNAp21, infected with HIV1 and treated with Nutlin3 (FIG. 25). These latter conditions ( ? ) yielded too few attached cells (<20) at 30 hours for similar analysis.\nApoptosis was measured in Ghost(3) cells 30 hours post-infection or drug treatment using the NucView™ 488 Caspase-3 Assay Kit (Biotium) in a 96 well format. Data was analysed in MATLAB using a probabilistic region method to measure cell attachment and expressed as percentage cell survival. […] An average of 3000 cells per condition were analysed with the exception of cells treated with Doxorubicin followed by HIV-infection (FIG. 27), cells transfected with lincRNA-p21 overexpression constructs followed by Doxorubicin treatment (FIG. 36), and cells transfected with full-length lincRNA-p21, infected with HIV-1 and treated with Nutlin3 (FIG. 45). These latter conditions ( ? ) yielded too few attached cells (<20) at 30 hours for similar analysis."}, "[3]": {"system": "HuR", "assay": "Immunofluorescence of HuR cellular location in Ghost(3) cells", "conditions": "HIV-infected Ghost(3) cells with inhibitor added (10 μM)", "protocol": "as §1, with “Coverslips were washed 3 times (5 mins each on an orbital shaker) with wash buffer (0.05% Tween20 in PBS), followed by incubation with secondary antibodies conjugated to either Atto550 or Atto565 or Atto647 for 60 mins at room temperature. Coverslips were washed 3 times (5 mins each on an orbital shaker) with wash buffer (0.05% Tween20 in PBS). Coverslips were incubated in equilibration buffer (0.4% glucose, 2×SCC) for 5 mins and counter stained with 1 mg/ml DAPI (4′,6-diamidino-2-phenylindole; Life Technologies). Coverslips were mounted in glox buffer (3.7 mg/ml glucose oxidase, 1 U catalase) and imaged.” left out\nFor each experiment, cells were infected or treated with drugs on coverslips, fixed for 10 mins in fresh 4% paraformaldehyde at room temperature, then washed 3 times in PBS and permeabilised for 10 mins in ice-cold methanol at −20° C. […] Double strand breaks were detected using rabbit polyclonal anti-phospho-histone H2A.X Ser139 (Cell Signaling). Activated ATM was detected using rabbit monoclonal anti-phospho-ATM Ser1981 (Cell Signaling). The ability of p53 to regulate apoptosis was detected using rabbit polyclonal anti-phospho-p53 Ser46 (Cell Signaling). Viral p24 was detected using mouse monoclonal anti-HIV-1-p24 (AIDS Research and Reference Reagent Program, Division of AIDS, NIAID, NIH). HuR was detected using mouse monoclonal anti-HuR 3A2 (Santa Cruz Biotechnology). hnRNP-K was detected using goat polyclonal anti-hnRNP-K P-20 (Santa Cruz Biotechnology). […]"}, "[4]": {"system": "HIV-1", "assay": "HIV-1 infection/replication in Ghost(3) reporter cells (LTR-driven GFP expression)", "conditions": "Ghost(3) cells exposed to HIV-1 and treated", "quoted_text": "Viral stocks were titred using TZMBI cells and used to infect Ghost(3) cells using an MOI=1.0, or IPSO-derived macrophages using an MOI=0.5. Where indicated, Ghost(3) cells were treated with 10 μM of either Raltegravir, Maraviroc, Tenofovir (AIDS Research and Reference Reagent Program, Division of AIDS, NIAID, NIH) or Nutlin3a (Sigma) for up to 48 hours.\nViral stocks were titred using TZM-BI cells and used to infect Ghost(3) cells using an MOI=1.0, or IPSO-derived macrophages using an MOI=0.5. Where indicated, cells were treated with 10 μM of either Raltegravir, Maraviroc, Tenofovir (AIDS Research and Reference Reagent Program, Division of AIDS, NIAID, NIH) or Doxorubicin (Sigma-Aldrich), or Nutlin3a (Sigma-Aldrich), or MAP2K1 inhibitor (U-0126) or ERK2 inhibitor (FR180204) for up to 48 hours."}, "[5]": {"conditions": "HIV-infected Ghost(3) cells exposed to MAP2K1 or ERK2 inhibitor (10 μM), 30 hours post-infection"}, "[6]": {"conditions": "cells transfected 24 hours with full-length or truncated lincRNA-p21, then Nutlin3a, absence of HIV-1"}, "[7]": {"conditions": "full-length lincRNA-p21 transfected 24 hours, HIV-1 infected 24 hours, then Nutlin3a"}, "[8]": {"conditions": "truncated lincRNA-p21 transfected 24 hours, HIV-1 infected 24 hours, then Nutlin3a"}, "[9]": {"conditions": "Ghost(3) cells exposed to HIV-1 and concurrently treated with 10 μM antiretroviral"}}, "note": "Entries after “also recorded” stand apart in the source; their conditions may differ. Like-named read-outs stand apart in the source and are kept apart here."}
{"molecule": "Nc1n[nH]c2nnc(-c3c(-c4ccccc4)nn4ccccc34)cc12", "note": "[ERK2 inhibitor, 5-(2-phenylpyrazolo[1,5-a]pyridin-3-yl)-1H-pyrazolo[3,4-c]pyridazin-3-amine]", "values": [{"measurement": "cellular location of hnRNP-K", "setting": "[1]; [5]", "value": "strong nuclear localisation of hnRNP-K"}, {"measurement": "apoptosis of HIV-infected cells", "setting": "[2]", "value": "infected cells underwent apoptosis"}, {"measurement": "cellular location of HuR", "setting": "[3]", "value": "Cytoplasmic HuR is not observed; also recorded: HIV-1 able to sequester HuR in the nucleus"}]}
{"molecule": "COc1ccc(C2=NC(c3ccc(Cl)cc3)C(c3ccc(Cl)cc3)N2C(=O)N2CCNC(=O)C2)c(OC(C)C)c1", "note": "(single isomer, unassigned; (-)) [Nutlin3a, (−)-4-(4,5-Bis(4-chlorophenyl)-2-(2-isopropoxy-4-methoxyphenyl)-4,5-dihydro-1H-imidazole-1-carbonyl)piperazin-2-one]", "values": [{"measurement": "cellular location of hnRNP-K", "setting": "[1]; Ghost(3) cells, Nutlin3a (10 μM) added 24 hours post HIV-1 infection", "value": "nuclear localisation of hnRNP-K at 48 hours in GFP-positive cells only; also recorded: nuclear localisation of hnRNPK in HIV-infected cells only; also recorded: nuclear localisation of hnRNP-K in HIV-infected cells only; also recorded: nuclear localisation of hnRNPK at 48 hours in GFP-positive cells only"}, {"measurement": "cellular location of hnRNP-K", "setting": "[1]; Ghost(3) cells, drug only, no HIV infection", "value": "cytoplasmic hnRNP-K; also recorded: no nuclear hnRNPK; also recorded: no nuclear hnRNP-K; also recorded: cytoplasmic hnRNPK"}, {"measurement": "cellular location of hnRNP-K", "setting": "[1]; Nutlin3a added prior to HIV1 infection", "value": "no nuclear hnRNPK was observed"}, {"measurement": "cellular location of hnRNP-K", "setting": "[1]; [6]", "value": "cytoplasmic hnRNPK; also recorded: cytoplasmic hnRNP-K"}, {"measurement": "cellular location of hnRNP-K", "setting": "[1]; [7]", "value": "showed nuclear hnRNP-K; also recorded: show nuclear hnRNPK"}, {"measurement": "cellular location of hnRNP-K", "setting": "[1]; [8]", "value": "show nuclear hnRNP-K; also recorded: also showed nuclear hnRNPK; also recorded: also showed nuclear hnRNP-K; also recorded: show nuclear hnRNPK"}, {"measurement": "apoptosis", "setting": "[2]; [6]", "value": "no apoptosis"}, {"measurement": "apoptosis", "setting": "[2]; [7]", "value": "undergo apoptosis within 24 hours of Nutlin3a addition; also recorded: underwent apoptosis"}, {"measurement": "apoptosis", "setting": "[2]; [8]", "value": "do not undergo apoptosis; also recorded: did not undergo apoptosis"}]}
{"molecule": "N#CC(=C(N)Sc1ccccc1N)C(C#N)=C(N)Sc1ccccc1N", "note": "[MAP2K1 inhibitor, 1,4-diamino-2,3-dicyano-1,4-bis(2-aminophenylthio)butadiene]", "values": [{"measurement": "cellular location of hnRNP-K", "setting": "[1]; [5]", "value": "strong nuclear localisation of hnRNP-K"}, {"measurement": "apoptosis of HIV-infected cells", "setting": "[2]", "value": "infected cells underwent apoptosis"}, {"measurement": "cellular location of HuR", "setting": "[3]", "value": "cytoplasmic (and nuclear) HuR"}]}
{"molecule": "C[C@H](Cn1cnc2c(N)ncnc21)OCP(=O)(O)O", "note": "[Tenofovir]", "values": [{"measurement": "cellular location of hnRNP-K", "setting": "[1]; [9]", "value": "no nuclear hnRNPK"}]}
{"molecule": "Maraviroc", "values": [{"measurement": "cellular location of hnRNP-K", "setting": "[1]; [9]", "value": "no nuclear hnRNPK"}, {"measurement": "HIV-1 infection / replication (GFP expression)", "setting": "[4]", "value": "remained uninfected"}]}
